In US20240239861A1, “GLUCAGON-RECEPTOR SELECTIVE POLYPEPTIDES AND METHODS OF USE THEREOF” (i2O Therapeutics, Inc., priority 2016, published 2024):
*1 amine or outer side, *2 acyl side, *3 side chain or, on linkers, in order; H or OH if unused. Where a SMILES comes first, the peptide text is derived from it. Side-chain parts run from the residue outwards. [ ]: non-standard residue; d: D form. The star is where a group is joined. C18 diacid = O=C(O)CCCCCCCCCCCCCCCCC(=O)*; γGlu = O=C(O)[C@H](CCC(=O)[*:2])N[*:1]; Palmitoyl = CCCCCCCCCCCCCCCC(=O)*; AEEA = NCCOCCOCC(=O)O; Aib = CC(C)(N)C(=O)O

Assays:
[1] = target: human GCGR (Homo sapiens, UniProt P47871); assay: Peptide-receptor mediated cAMP accumulation (LANCE Ultra cAMP) in CHO-K1 cells transfected with human GCGR; format: cell-based; details: read-out: GluR pEC50 (converted)
Sequence of human GCGR (P47871 26-477): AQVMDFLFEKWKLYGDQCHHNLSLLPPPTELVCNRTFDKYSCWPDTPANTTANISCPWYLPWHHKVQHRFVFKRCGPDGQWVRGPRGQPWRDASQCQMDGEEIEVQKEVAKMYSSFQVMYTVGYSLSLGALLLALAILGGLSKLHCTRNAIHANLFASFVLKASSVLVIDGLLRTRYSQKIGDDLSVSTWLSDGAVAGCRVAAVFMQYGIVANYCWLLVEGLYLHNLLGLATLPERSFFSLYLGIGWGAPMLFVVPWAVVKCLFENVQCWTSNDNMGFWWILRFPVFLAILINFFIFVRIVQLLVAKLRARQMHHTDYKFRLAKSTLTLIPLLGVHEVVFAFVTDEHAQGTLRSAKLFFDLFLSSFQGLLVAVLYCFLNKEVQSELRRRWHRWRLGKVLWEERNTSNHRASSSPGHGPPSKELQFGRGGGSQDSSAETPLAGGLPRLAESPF

[2] = target: human GLP-1R (Homo sapiens, UniProt P43220); assay: Peptide-receptor mediated cAMP accumulation (LANCE Ultra cAMP) in CHO-K1 cells transfected with human GLP-1R; format: cell-based; details: Table 7; GLP-1R; read-out: GLP-1R pEC50 (converted)
Sequence of human GLP-1R (P43220 24-463): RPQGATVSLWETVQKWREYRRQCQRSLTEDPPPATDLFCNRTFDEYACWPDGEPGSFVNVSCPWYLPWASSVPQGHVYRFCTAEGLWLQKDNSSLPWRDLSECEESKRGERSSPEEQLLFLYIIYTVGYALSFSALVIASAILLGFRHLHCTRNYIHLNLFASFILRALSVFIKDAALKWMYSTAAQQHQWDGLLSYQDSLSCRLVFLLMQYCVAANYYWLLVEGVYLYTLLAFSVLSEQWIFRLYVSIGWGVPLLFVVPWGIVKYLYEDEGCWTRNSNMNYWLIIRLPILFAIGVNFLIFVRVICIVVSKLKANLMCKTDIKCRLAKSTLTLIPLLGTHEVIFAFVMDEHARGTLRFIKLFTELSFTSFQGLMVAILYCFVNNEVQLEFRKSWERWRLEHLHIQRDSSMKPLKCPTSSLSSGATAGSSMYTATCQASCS

Compound | EC50 [1] | EC50 [2]
CCCCCCCCCCCCCCCC(=O)N[C@@H](CCC(=O)NCCCC[C@H](NC(=O)[C@H](CC(=O)O)NC(=O)[C@H](CC(C)C)NC(=O)[C@H](Cc1ccc(O)cc1)NC(=O)[C@H](CCCCN)NC(=O)[C@H](CO)NC(=O)[C@H](Cc1ccc(O)cc1)NC(=O)[C@H](CC(=O)O)NC(=O)[C@H](CO)NC(=O)[C@@H](NC(=O)[C@H](Cc1ccccc1)NC(=O)[C@@H](NC(=O)CNC(=O)[C@H](CCC(N)=O)NC(=O)[C@H](CO)NC(=O)[C@@H](N)Cc1c[nH]c2ccccc12)[C@@H](C)O)[C@@H](C)O)C(=O)N[C@@H](CCCCN)C(=O)N[C@@H](CCCNC(=N)N)C(=O)N[C@@H](C)C(=O)N[C@@H](CCC(N)=O)C(=O)N[C@@H](CCC(=O)O)C(=O)N[C@@H](Cc1ccccc1)C(=O)N[C@H](C(=O)NC(C)(C)C(=O)N[C@@H](Cc1c[nH]c2ccccc12)C(=O)N[C@@H](CC(C)C)C(=O)N[C@@H](CCC(=O)O)C(=O)N[C@@H](CC(=O)O)C(=O)N[C@@H](CCC(=O)O)C(=O)N1CCC[C@H]1C(=O)N[C@@H](CO)C(=O)N[C@@H](CO)C(=O)NCC(=O)N[C@@H](C)C(=O)N1CCC[C@H]1C(=O)N1CCC[C@H]1C(=O)N1CCC[C@H]1C(=O)N[C@@H](CO)C(=O)O)C(C)C)C(=O)O [Compound B19] (H-WSQGTFTSDYSKYLDK([γGlu-Palmitoyl])KRAQEFV[Aib]WLEDEPSSGAPPPS-OH) | 0.0251 nM | 501 nM
CCCCCCCCCCCCCCCC(=O)N[C@@H](CCC(=O)NCCCC[C@H](NC(=O)[C@H](CC(=O)O)NC(=O)[C@H](CO)NC(=O)[C@@H](NC(=O)[C@H](Cc1ccccc1)NC(=O)[C@@H](NC(=O)CNC(=O)[C@H](CCC(N)=O)NC(=O)[C@H](CO)NC(=O)[C@@H](N)Cc1c[nH]c2ccccc12)[C@@H](C)O)[C@@H](C)O)C(=O)N[C@@H](CO)C(=O)N[C@@H](CCCCN)C(=O)N[C@@H](Cc1ccc(O)cc1)C(=O)N[C@@H](CC(C)C)C(=O)N[C@@H](CC(=O)O)C(=O)NC(C)(C)C(=O)N[C@@H](CCCCN)C(=O)N[C@@H](CCCNC(=N)N)C(=O)N[C@@H](C)C(=O)N[C@@H](CCC(N)=O)C(=O)N[C@@H](CCC(=O)O)C(=O)N[C@@H](Cc1ccccc1)C(=O)N[C@H](C(=O)NC(C)(C)C(=O)N[C@@H](Cc1c[nH]c2ccccc12)C(=O)N[C@@H](CC(C)C)C(=O)N[C@@H](CCC(=O)O)C(=O)N[C@@H](CC(=O)O)C(=O)N[C@@H](CCC(=O)O)C(=O)N1CCC[C@H]1C(=O)N[C@@H](CO)C(=O)N[C@@H](CO)C(=O)NCC(=O)N[C@@H](C)C(=O)N1CCC[C@H]1C(=O)N1CCC[C@H]1C(=O)N1CCC[C@H]1C(=O)N[C@@H](CO)C(=O)O)C(C)C)C(=O)O [Compound B20] (H-WSQGTFTSDK([γGlu-Palmitoyl])SKYLD[Aib]KRAQEFV[Aib]WLEDEPSSGAPPPS-OH) | 0.00794 nM | 316 nM
CC(C)C[C@H](NC(=O)[C@H](Cc1ccc(O)cc1)NC(=O)[C@H](CCCCN)NC(=O)[C@H](CO)NC(=O)[C@H](Cc1ccc(O)cc1)NC(=O)[C@H](CC(=O)O)NC(=O)[C@H](CO)NC(=O)[C@@H](NC(=O)[C@H](Cc1ccccc1)NC(=O)[C@@H](NC(=O)CNC(=O)[C@H](CCC(N)=O)NC(=O)[C@H](CO)NC(=O)[C@@H](N)Cc1c[nH]c2ccccc12)[C@@H](C)O)[C@@H](C)O)C(=O)N[C@@H](CC(=O)O)C(=O)N[C@@H](CCCCNC(=O)COCCOCCNC(=O)COCCOCCNC(=O)CC[C@H](NC(=O)CCCCCCCCCCCCCCCCC(=O)O)C(=O)O)C(=O)N[C@@H](CCCCN)C(=O)N[C@@H](CCCNC(=N)N)C(=O)N[C@@H](C)C(=O)N[C@@H](CCC(N)=O)C(=O)N[C@@H](CCC(=O)O)C(=O)N[C@@H](Cc1ccccc1)C(=O)N[C@H](C(=O)NC(C)(C)C(=O)N[C@@H](Cc1c[nH]c2ccccc12)C(=O)N[C@@H](CC(C)C)C(=O)N[C@@H](CCC(=O)O)C(=O)N[C@@H](CC(=O)O)C(=O)N[C@@H](CCC(=O)O)C(=O)N1CCC[C@H]1C(=O)N[C@@H](CO)C(=O)N[C@@H](CO)C(=O)NCC(=O)N[C@@H](C)C(=O)N1CCC[C@H]1C(=O)N1CCC[C@H]1C(=O)N1CCC[C@H]1C(=O)N[C@@H](CO)C(=O)O)C(C)C [Compound B23] (H-WSQGTFTSDYSKYLDK([AEEA-AEEA-γGlu-C18 diacid])KRAQEFV[Aib]WLEDEPSSGAPPPS-OH) | 0.316 nM | 316 nM
CCCCCCCCCCCCCCCC(=O)N[C@@H](CCC(=O)NCCCC[C@H](NC(=O)[C@H](CO)NC(=O)[C@H](CO)NC(=O)[C@@H]1CCCN1C(=O)[C@H](CCC(=O)O)NC(=O)[C@H](CC(=O)O)NC(=O)[C@H](CCC(=O)O)NC(=O)[C@H](CC(C)C)NC(=O)[C@H](Cc1c[nH]c2ccccc12)NC(=O)[C@@H](NC(=O)[C@@H](NC(=O)[C@H](Cc1ccccc1)NC(=O)[C@H](CCC(=O)O)NC(=O)[C@H](CCC(N)=O)NC(=O)[C@H](C)NC(=O)[C@H](CCCNC(=N)N)NC(=O)[C@H](CCCCN)NC(=O)C(C)(C)NC(=O)[C@H](CC(=O)O)NC(=O)[C@H](CC(C)C)NC(=O)[C@H](Cc1ccc(O)cc1)NC(=O)[C@H](CCCCN)NC(=O)[C@H](CO)NC(=O)[C@H](Cc1ccc(O)cc1)NC(=O)[C@H](CC(=O)O)NC(=O)[C@H](CO)NC(=O)[C@@H](NC(=O)[C@H](Cc1ccccc1)NC(=O)[C@@H](NC(=O)CNC(=O)[C@H](Cc1c[nH]cn1)NC(=O)[C@H](CO)NC(=O)[C@@H](N)Cc1ccc(O)cc1)[C@@H](C)O)[C@@H](C)O)C(C)C)[C@@H](C)CC)C(=O)N[C@@H](C)C(=O)N1CCC[C@H]1C(=O)N1CCC[C@H]1C(=O)N1CCC[C@H]1C(=O)N[C@@H](CO)C(=O)O)C(=O)O [Compound B25] | 0.0316 nM | > 1000 nM
CCCCCCCCCCCCCCCC(=O)N[C@@H](CCC(=O)NCCCC[C@H](NC(=O)[C@H](CC(=O)O)NC(=O)[C@H](CC(C)C)NC(=O)[C@H](Cc1ccc(O)cc1)NC(=O)[C@H](CCCCN)NC(=O)[C@H](CO)NC(=O)[C@H](Cc1ccc(O)cc1)NC(=O)[C@H](CC(=O)O)NC(=O)[C@H](CO)NC(=O)[C@@H](NC(=O)[C@H](Cc1ccccc1)NC(=O)[C@@H](NC(=O)CNC(=O)[C@H](Cc1c[nH]cn1)NC(=O)[C@H](CO)NC(=O)[C@@H](N)Cc1ccc(O)cc1)[C@@H](C)O)[C@@H](C)O)C(=O)N[C@@H](CCCCN)C(=O)N[C@@H](CCCNC(=N)N)C(=O)N[C@@H](C)C(=O)N[C@@H](CCC(N)=O)C(=O)N[C@@H](CCC(=O)O)C(=O)N[C@@H](Cc1ccccc1)C(=O)N[C@H](C(=O)N[C@H](C(=O)N[C@@H](Cc1c[nH]c2ccccc12)C(=O)N[C@@H](CC(C)C)C(=O)N[C@@H](CCC(=O)O)C(=O)N[C@@H](CC(=O)O)C(=O)N[C@@H](CCC(=O)O)C(=O)N1CCC[C@H]1C(=O)N[C@@H](CO)C(=O)N[C@@H](CO)C(=O)NCC(=O)N[C@@H](C)C(=O)N1CCC[C@H]1C(=O)N1CCC[C@H]1C(=O)N1CCC[C@H]1C(=O)N[C@@H](CO)C(=O)O)[C@@H](C)CC)C(C)C)C(=O)O [Compound B26] | 0.01 nM | > 1000 nM
CCCCCCCCCCCCCCCC(=O)N[C@@H](CCC(=O)NCCCC[C@H](NC(=O)[C@H](CC(=O)O)NC(=O)[C@H](CO)NC(=O)[C@@H](NC(=O)[C@H](Cc1ccccc1)NC(=O)[C@@H](NC(=O)CNC(=O)[C@H](Cc1c[nH]cn1)NC(=O)[C@H](CO)NC(=O)[C@@H](N)Cc1ccc(O)cc1)[C@@H](C)O)[C@@H](C)O)C(=O)N[C@@H](CO)C(=O)N[C@@H](CCCCN)C(=O)N[C@@H](Cc1ccc(O)cc1)C(=O)N[C@@H](CC(C)C)C(=O)N[C@@H](CC(=O)O)C(=O)NC(C)(C)C(=O)N[C@@H](CCCCN)C(=O)N[C@@H](CCCNC(=N)N)C(=O)N[C@@H](C)C(=O)N[C@@H](CCC(N)=O)C(=O)N[C@@H](CCC(=O)O)C(=O)N[C@@H](Cc1ccccc1)C(=O)N[C@H](C(=O)N[C@H](C(=O)N[C@@H](Cc1c[nH]c2ccccc12)C(=O)N[C@@H](CC(C)C)C(=O)N[C@@H](CCC(=O)O)C(=O)N[C@@H](CC(=O)O)C(=O)N[C@@H](CCC(=O)O)C(=O)N1CCC[C@H]1C(=O)N[C@@H](CO)C(=O)N[C@@H](CO)C(=O)NCC(=O)N[C@@H](C)C(=O)N1CCC[C@H]1C(=O)N1CCC[C@H]1C(=O)N1CCC[C@H]1C(=O)N[C@@H](CO)C(=O)O)[C@@H](C)CC)C(C)C)C(=O)O [Compound B27] (H-YSHGTFTSDK([γGlu-Palmitoyl])SKYLD[Aib]KRAQEFVIWLEDEPSSGAPPPS-OH) | 0.00316 nM | 251 nM
CCCCCCCCCCCCCCCC(=O)N[C@@H](CCC(=O)NCCCC[C@H](NC(=O)[C@@H](NC(=O)[C@H](Cc1ccccc1)NC(=O)[C@H](CCC(=O)O)NC(=O)[C@H](CCC(N)=O)NC(=O)[C@H](C)NC(=O)[C@H](CCCNC(=N)N)NC(=O)[C@H](C)NC(=O)[C@H](C)NC(=O)[C@H](CC(=O)O)NC(=O)[C@H](CC(C)C)NC(=O)[C@H](Cc1ccc(O)cc1)NC(=O)[C@H](CCCCN)NC(=O)[C@H](CO)NC(=O)[C@H](Cc1ccc(O)cc1)NC(=O)[C@H](CC(=O)O)NC(=O)[C@H](CO)NC(=O)[C@@H](NC(=O)[C@H](Cc1ccccc1)NC(=O)[C@@H](NC(=O)CNC(=O)[C@H](CCC(N)=O)NC(=O)[C@H](CO)NC(=O)[C@@H](N)Cc1ccc(O)cc1)[C@@H](C)O)[C@@H](C)O)C(C)C)C(=O)N[C@@H](Cc1c[nH]c2ccccc12)C(=O)N[C@@H](CC(C)C)C(=O)N[C@@H](CCC(=O)O)C(=O)N[C@@H](CC(=O)O)C(=O)N[C@@H](CCC(=O)O)C(=O)N1CCC[C@H]1C(=O)N[C@@H](CCCCN)C(=O)N[C@@H](CO)C(=O)N[C@@H](CCCCN)C(=O)N[C@@H](CO)C(=O)N1CCC[C@H]1C(=O)N1CCC[C@H]1C(=O)N1CCC[C@H]1C(=O)N[C@@H](CO)C(N)=O)C(=O)O [Compound B34] (H-YSQGTFTSDYSKYLDAARAQEFVK([γGlu-Palmitoyl])WLEDEPKSKSPPPS-NH2) | 0.158 nM | > 1000 nM
